The source made the active and inactive calls. The rule behind the calls is not given here.
Assays:
Rattus norvegicus [1] = test: (§1) Protection against light-induced retinal degeneration in Sprague-Dawley rat assessed as suppression of light-induced retinal function loss by measuring preservation of cone function at 50 mg/kg, ip dosed 16 to 24 hrs before 6 hrs light exposure and measured 7 days after light-exposure by electroretinography; type: functional, organism-based
Rattus norvegicus [2] = test: (§2) Protection against light-induced retinal degeneration in Sprague-Dawley rat assessed as suppression of light-induced retinal function loss by measuring Rod-a and b-wave responses at 50 mg/kg, ip dosed 0.5 hrs before 6 hrs light exposure and measured 7 days after light-exposure by electroretinography; type: functional, organism-based
Rattus norvegicus [3] = test: Inhibition of rhodopsin regeneration in overnight dark-adaptated Sprague-Dawley rat assessed as effect on rhodopsin recovery by measuring rhodopsin content at 50 mg/kg, ip followed by exposure to room light for 2 hrs and measured 2.5 hrs after photo-bleach by spectrophotometry; type: functional, organism-based
Rattus norvegicus [4] = test: Protection against light-induced retinal degeneration in Sprague-Dawley rat assessed as photoreceptor levels in central and superior retina at 50 mg/kg, ip dosed 0.5 hrs before 6 hrs light exposure relative to control; type: functional
Rattus norvegicus [5] = test: Protection against light-induced retinal degeneration in Sprague-Dawley rat assessed as suppression of light-induced retinal structure loss at 50 mg/kg, ip dosed 0.5 hrs after 6 hrs light exposure and measured 7 days after light-exposure by electroretinography; type: functional, organism-based
Mus musculus [6] = test: Protection against light-induced retinal degeneration in BALB/c mouse assessed as suppression of light-induced retinal rod function loss at 10% topical application dosed 0.5 hrs before 6 hrs light exposure and measured 5 days after light-exposure by electroretinography; type: functional, organism-based
Mus musculus [7] = test: Inhibition of rhodopsin regeneration in completely light-adapted mouse BALB/c mouse assessed as effect on rhodopsin content at 10% dosed to eyes via eye drop for 2 times at 3 and 0 hrs before dark adaptation for 1 hr by spectrophotometry; type: functional, organism-based
[8] = target: T1, Lecithin retinol acyltransferase (Rattus norvegicus) (UniProt Q9JI61); test: Inhibition of LRAT in rat RPE microsomes assessed as reduction in retinyl-ester at 1 mM using all-trans-[3H]-retinol by HPLC analysis
T1 sequence (whole entry): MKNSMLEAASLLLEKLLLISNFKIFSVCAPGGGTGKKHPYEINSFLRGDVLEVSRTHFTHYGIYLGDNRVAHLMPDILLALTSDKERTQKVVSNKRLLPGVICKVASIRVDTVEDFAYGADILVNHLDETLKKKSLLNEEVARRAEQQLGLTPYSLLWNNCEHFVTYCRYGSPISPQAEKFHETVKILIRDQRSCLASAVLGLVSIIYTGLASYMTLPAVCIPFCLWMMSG

Rattus norvegicus [9] = test: Effect on cone function in Sprague-Dawley rat at 50 mg/kg, ip under steady rod-suppressing background illumination 60 mins post compound dosing by single- and flicker-flash ERG recordings based assay; type: functional, organism-based
Rattus norvegicus [10] = test: as §1, with “0.5” for “16”, “12” for “24”; type: functional, organism-based
Rattus norvegicus [11] = test: Protection against light-induced retinal degeneration in Sprague-Dawley rat assessed as suppression of light-induced retinal function loss by measuring preservation of cone function at 50 mg/kg, ip dosed after 6 hrs light exposure and measured 7 days after light-exposure by electroretinography; type: functional, organism-based
[12] = target: T2, Retinoid isomerohydrolase (Rattus norvegicus) (UniProt O70276); test: Inhibition of RPE65 in rat RPE microsomes assessed as reduction in isomero-hydrolase activity by measuring 11-cis-retinol generation using all-trans-[3H]-retinol by HPLC analysis
T2 sequence (whole entry): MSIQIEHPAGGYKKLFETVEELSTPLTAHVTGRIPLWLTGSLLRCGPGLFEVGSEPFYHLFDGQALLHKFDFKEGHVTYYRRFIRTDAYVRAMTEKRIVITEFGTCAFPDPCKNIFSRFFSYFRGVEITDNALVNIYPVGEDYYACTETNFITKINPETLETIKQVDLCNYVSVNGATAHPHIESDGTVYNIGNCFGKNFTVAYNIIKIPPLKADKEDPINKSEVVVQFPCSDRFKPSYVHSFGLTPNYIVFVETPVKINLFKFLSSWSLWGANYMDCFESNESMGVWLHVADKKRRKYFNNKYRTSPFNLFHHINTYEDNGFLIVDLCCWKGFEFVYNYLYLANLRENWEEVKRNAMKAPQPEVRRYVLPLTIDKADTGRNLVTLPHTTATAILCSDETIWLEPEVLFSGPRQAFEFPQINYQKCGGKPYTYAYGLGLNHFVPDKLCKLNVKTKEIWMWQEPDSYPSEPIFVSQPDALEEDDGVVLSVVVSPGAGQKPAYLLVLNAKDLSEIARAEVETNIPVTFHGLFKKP

Mus musculus [13] = test: Inhibition of rhodopsin regeneration in completely light-adapted mouse BALB/c mouse assessed as effect on rhodopsin content at 10% dosed to eyes via eye drop for 3 times at 6, 3 and 0 hrs before dark adaptation for 1 hr by spectrophotometry; type: functional, organism-based
Baboon = test: Inhibition of rhodopsin regeneration in anesthetized baboon assessed as rhodopsin regeneration by measuring rhodopsin content in eye at 10 mg/ml dosed as two drops for every 15 minutes for 1.75 hrs by spectrophotometry (reference value: 100%); type: functional, Papio; parameters: scale not given: the % may be the effect or the level left
Rattus norvegicus [14] = test: as §2, with “16 to 24” for “0.5”; type: functional, organism-based
Rattus norvegicus [15] = test: Protection against light-induced retinal degeneration in Sprague-Dawley rat assessed as suppression of light-induced retinal function loss by measuring Rod-a and b-wave responses at 50 mg/kg, ip dosed 0.5 hrs after 6 hrs light exposure and measured 7 days after light-exposure by electroretinography; type: functional, organism-based
[16] = Drug level in […] in anesthetized baboon assessed per mg wet weight at 10 mg/ml dosed as two drops for every 15 minutes for 1.75 hrs by mass spectrometry; type: ADME, organism-based, Papio; settings: in vivo, topical_or_ocular
Rattus norvegicus [17] = test: Protection against light-induced retinal degeneration in Sprague-Dawley rat assessed as suppression of light-induced retinal structure loss at 50 mg/kg, ip dosed up to 12 hrs before 6 hrs light exposure and measured 7 days after light-exposure by electroretinography; type: functional, organism-based
Mus musculus [18] = species on record: Mus musculus; test: Inhibition of retinal RDH activity in mouse retinal microsomes assessed as effect on NADPH-dependent reduction of all-trans-retinal; settings: Retina
[19] = Drug level in posterior eye cup of completely light-adapted mouse BALB/c mouse at 10% dosed to eyes via eye drop for 3 times at 6, 3 and 0 hrs before dark adaptation for 1 hr by mass spectrometry; type: ADME, organism-based; settings: in vivo, topical_or_ocular
Rattus norvegicus [20] = test: (§3) Inhibition of rhodopsin regeneration in overnight dark-adaptated Sprague-Dawley rat assessed as effect on rhodopsin recovery by measuring rhodopsin content at 50 mg/kg, ip followed by exposure to room light for 2 hrs and measured 3 hrs after photo-bleach by spectrophotometry (reference value: 100%); type: functional; parameters: scale not given: the % may be the effect or the level left
Rattus norvegicus [21] = test: Protection against light-induced retinal degeneration in Sprague-Dawley rat assessed as suppression of light-induced retinal structure loss at 50 mg/kg, ip dosed 16 to 24 hrs before 6 hrs light exposure and measured 7 days after light-exposure by electroretinography; type: functional, organism-based
Mus musculus [22] = test: Inhibition of rhodopsin regeneration in completely light-adapted mouse BALB/c mouse assessed as effect on rhodopsin content at 10% dosed to eyes via eye drop followed by mouse moving to dark for 1 hr by spectrophotometry; type: functional, organism-based
Rattus norvegicus [23] = test: Protection against light-induced retinal degeneration in Sprague-Dawley rat assessed as suppression of light-induced retinal structure loss at 50 mg/kg, ip dosed 0.5 hrs before 6 hrs light exposure and measured 7 days after light-exposure by electroretinography; type: functional, organism-based
[24] = target: T2, Retinoid isomerohydrolase (Rattus norvegicus); test: Inhibition of RPE65 in rat RPE microsomes assessed as reduction in isomero-hydrolase activity by measuring 11-cis-retinol generation at 1 mM using all-trans-[3H]-retinol by HPLC analysis
Rattus norvegicus [25] = test: as §2, with “up to 12” for “0.5”; type: functional, organism-based
Rattus norvegicus [26] = test: as §3, with “45 mins” for “3 hrs”; type: functional; parameters: scale not given: the % may be the effect or the level left
Mus musculus [27] = test: Inhibition of rhodopsin regeneration in completely light-adapted mouse BALB/c mouse assessed as rhodopsin recovery level by measuring effect on rhodopsin content at 5% dosed to eyes via eye drop before dark adaptation for 1 hr by spectrophotometry (reference value: 78.83%); type: functional; parameters: scale not given: the % may be the effect or the level left
Rattus norvegicus [28] = test: Protection against light-induced retinal degeneration in overnight dark-adaptated Sprague-Dawley rat assessed as protection of retinal rod function by measuring effect on A-waves at 50 mg/kg, ip dosed 30 mins prior to exposure to 4 log cd.s/m2 test flash by electroretinography relative to control; type: functional

Structure (SMILES)	Activity (Rattus norvegicus [1])	Activity (Rattus norvegicus [2])	inhibition (Rattus norvegicus [3])	Activity (Rattus norvegicus [4])	Activity (Rattus norvegicus [5])	Activity (Rattus norvegicus [10])	Activity (Rattus norvegicus [11])	inhibition [12]	Activity (Rattus norvegicus [15])	Activity (Rattus norvegicus [23])	further results
CC(C)(C)/[N+]([O-])=C/c1ccccc1	inactive	Active	Active	90%	inactive	Active	inactive	Dose-dependent effect	inactive	Active	Activity (Mus musculus [6]): Active; inhibition (Mus musculus [7]): Active; inhibition [8]: inactive; Activity (Rattus norvegicus [9]): inactive; inhibition (Mus musculus [13]): Active; Activity (Baboon): 26 - 36%; Activity (Rattus norvegicus [14]): inactive; Drug uptake [16]: 23.5 to 24.2 ng; Activity (Rattus norvegicus [17]): Active; inhibition (Mus musculus [18]): inactive; Drug uptake [19]: Active; Activity (Rattus norvegicus [20]): 0%; Activity (Rattus norvegicus [21]): inactive; inhibition (Mus musculus [22]): Active; inhibition [24]: 100%; Activity (Rattus norvegicus [25]): Active; Activity (Rattus norvegicus [26]): 0%
CC(C)(C)/[N+]([O-])=C/c1ccccc1S(=O)(=O)[O-].[Na+]	inactive	inactive			inactive	inactive	inactive	inactive	inactive	inactive	Activity (Mus musculus [27]): 84.64%
Cc1ccc(/C=[N+](\[O-])C(C)(C)C)cc1			Active	Active							
CC(C)(C)/[N+]([O-])=C/c1ccc(C(F)(F)F)cc1			Active	Active							Activity (Rattus norvegicus [28]): 804%
CC(C)(C)/[N+]([O-])=C/c1ccc(F)cc1			Active	Active							
